Data reported in patent US8772312B2, “Heterocyclic compounds as CRTH2 receptor antagonists” (CSPC Zhongqi Pharmaceutical Technology (Shijiazhuang) Co., …, priority 2007, dated 2014).

How the values were obtained:
CRTH2 [1] = molecular target: T1, CRTH2 (Homo sapiens, UniProt Q9Y5Y4); conditions: radioligand [3H] Prostaglandin D2; historical value of the MDS assay; cited from earlier work
T1 construct: host or cells: CHO-K1
T1 sequence (Q9Y5Y4 1-395): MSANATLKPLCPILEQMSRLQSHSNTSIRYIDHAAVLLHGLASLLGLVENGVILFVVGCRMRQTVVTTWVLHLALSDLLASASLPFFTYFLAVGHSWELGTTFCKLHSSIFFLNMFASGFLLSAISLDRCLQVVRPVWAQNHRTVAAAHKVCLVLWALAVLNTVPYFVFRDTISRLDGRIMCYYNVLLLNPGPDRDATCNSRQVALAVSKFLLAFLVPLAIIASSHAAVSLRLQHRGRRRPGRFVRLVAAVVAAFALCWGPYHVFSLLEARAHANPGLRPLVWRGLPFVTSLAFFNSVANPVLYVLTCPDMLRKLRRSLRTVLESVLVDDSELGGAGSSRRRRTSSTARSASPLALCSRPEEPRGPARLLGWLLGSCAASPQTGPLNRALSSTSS

CRTH2 [2] = molecular target: T1, CRTH2; experiment: MDS Prostanoid CRTH2 Binding Assay (Catalog #268030), radioligand binding; conditions: 20 nM of tested compound; ligand 1 nM [3H]PGD2; human recombinant CHO-K1 cells; 2 hours @ 25° C.
Description: The CRTH2 binding affinity of compounds of Formula I were assayed by MDS Pharma Service using the following reagents and conditions:
• MDS Prostanoid CRTH2 Binding Assay (Catalog #268030): • Source: Human recombinant CHO-K1 cells • Ligand: 1 nM [^3H]

| Compound | Kd (CRTH2 [1]) [nM] | % inhibition of PGD2 binding (CRTH2 [2]) [%] |
| --- | --- | --- |
| CCCCC[C@H](O)/C=C/[C@H]1C(=O)C[C@H](O)[C@@H]1C/C=C\CCCC(=O)O [PGD2, Prostaglandin D2] | 4.1 | – |
| CN(C1CCc2c(CC(=O)O)c3cccnc3n2C1)S(=O)(=O)c1ccc(F)cc1 (single isomer, unassigned) [Example 4A] | – | 91 |
| CN(C1CCc2c(CC(=O)O)c3ccc(Cl)nc3n2C1)S(=O)(=O)c1ccc(F)cc1 (single isomer, unassigned) [Example 2B] | – | 0 |
| CN(C1CCc2c(CC(=O)O)c3ccc(Cl)nc3n2C1)S(=O)(=O)c1ccc(F)cc1 (single isomer, unassigned) [Example 2A] | – | 97 |
| CN(C1CCc2c(CC(=O)O)c3cccnc3n2C1)S(=O)(=O)c1ccc(F)cc1 (single isomer, unassigned) [Example 4B] | – | 0 |
